The IC50 is the concentration at which inhibition is half-maximal. By logP is commonly meant a log measure of how a compound divides between an organic and an aqueous phase. Usually Ki stands for the equilibrium dissociation constant of an inhibitor or competing ligand from its target.

The species entered for one data set is Homo sapiens. Nature of the data set: Selectivity index, ratio of IC50 for human recombinant MAO-A to IC50 for human recombinant MAO-B.
Data set [1] addresses T1, Amine oxidase [flavin-containing] A (Homo sapiens, UniProt P21397).
T1 sequence (P21397 whole entry): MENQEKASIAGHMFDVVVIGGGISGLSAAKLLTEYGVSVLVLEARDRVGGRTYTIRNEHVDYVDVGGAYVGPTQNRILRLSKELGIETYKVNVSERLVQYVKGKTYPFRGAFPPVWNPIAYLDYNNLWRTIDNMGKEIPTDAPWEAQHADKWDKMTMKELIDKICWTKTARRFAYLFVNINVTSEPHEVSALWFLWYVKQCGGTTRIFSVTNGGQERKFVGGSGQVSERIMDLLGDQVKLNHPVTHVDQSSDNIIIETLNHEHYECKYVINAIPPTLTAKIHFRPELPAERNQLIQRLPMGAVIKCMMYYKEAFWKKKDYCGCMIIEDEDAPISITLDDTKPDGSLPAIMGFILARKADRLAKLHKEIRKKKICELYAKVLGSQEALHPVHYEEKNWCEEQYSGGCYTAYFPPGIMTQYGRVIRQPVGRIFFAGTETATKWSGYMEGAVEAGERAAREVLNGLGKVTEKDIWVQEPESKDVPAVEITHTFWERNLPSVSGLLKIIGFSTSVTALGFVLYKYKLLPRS
Nature of the data set: Inhibition of human recombinant MAO-A expressed in insect cell microsome assessed as 4-hydroxyquinoline formation using kynuramine as substrate after 20 mins by fluorescence spectrophotometry. The data set is classed as microsomes.

Data set [2] has as its target T2, Amine oxidase [flavin-containing] B (Homo sapiens, UniProt P27338).
T2 sequence (P27338 whole entry): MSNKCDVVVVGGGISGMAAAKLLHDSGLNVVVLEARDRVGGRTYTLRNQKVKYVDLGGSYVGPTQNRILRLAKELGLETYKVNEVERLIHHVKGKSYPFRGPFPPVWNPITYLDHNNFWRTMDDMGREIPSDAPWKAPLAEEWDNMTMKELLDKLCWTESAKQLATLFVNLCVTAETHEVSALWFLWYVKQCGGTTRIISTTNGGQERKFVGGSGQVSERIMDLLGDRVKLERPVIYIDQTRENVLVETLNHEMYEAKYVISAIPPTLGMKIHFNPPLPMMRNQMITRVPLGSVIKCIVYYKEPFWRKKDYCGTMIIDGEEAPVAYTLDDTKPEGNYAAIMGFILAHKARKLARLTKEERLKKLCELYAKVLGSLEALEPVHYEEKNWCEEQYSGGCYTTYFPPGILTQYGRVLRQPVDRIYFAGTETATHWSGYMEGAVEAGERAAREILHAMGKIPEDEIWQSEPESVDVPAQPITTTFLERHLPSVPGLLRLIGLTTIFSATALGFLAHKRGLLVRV
Description: Inhibition of human recombinant MAO-B expressed in insect cell microsome assessed as 4-hydroxyquinoline formation using kynuramine as substrate after 20 mins by fluorescence spectrophotometry

Data set [3] can be described thus: Octanol-water partition coefficient, log P of the compound by shake flask method. The data set is classed as physicochemical.
Data set [4] addresses T2, Amine oxidase [flavin-containing] B. Nature of the data set: Reversible inhibition of human recombinant MAO-B expressed in insect cell microsome assessed as enzyme activity recovery using kynuramine as substrate preincubated for 30 mins at 100xIC50 measured after 20 mins following 100-fold compound dilution with addition of substrate by fluorescence spectrophotometry. The arrangement: scale not given: the % may be the effect or the level left. The data set is classed as microsomes.

Data set [5] addresses T1, Amine oxidase [flavin-containing] A. Nature of the data set: Inhibition of human recombinant MAO-A expressed in insect cell microsome assessed as 4-hydroxyquinoline formation using kynuramine as substrate at 100 uM after 20 mins by fluorescence spectrophotometry. The data set is classed as microsomes.
In data set [6] the target is T2, Amine oxidase [flavin-containing] B. Nature of the data set: Competitive inhibition of human recombinant MAO-B expressed in insect cell microsome using kynuramine as substrate by Morrison equation analysis. The data set is classed as microsomes.
For data set [7] the target is unchanged. Nature of the data set: Competitive inhibition of human recombinant MAO-B expressed in insect cell microsome using kynuramine as substrate by Lineweaver-Burk plot analysis. The data set is classed as microsomes.
The target is the same in data set [8]. Nature of the data set: Reversible inhibition of human recombinant MAO-B expressed in insect cell microsome assessed as 4-hydroxyquinoline formation using kynuramine as substrate preincubated for 15 to 60 mins at 2 times IC50 measured after 15 mins following twofold compound dilution with addition of substrate by fluorescence spectrophotometry. The data set is classed as microsomes. The following applies: 0.25 h.

For data set [9], the target named is T1, Amine oxidase [flavin-containing] A. Nature of the data set: Reversible inhibition of human recombinant MAO-A expressed in insect cell microsome assessed as 4-hydroxyquinoline formation using kynuramine as substrate preincubated for 15 to 60 mins at 2 times IC50 measured after 15 mins following twofold compound dilution with addition of substrate by fluorescence spectrophotometry. The data set is classed as microsomes. Particulars: 0.25 h; call rule not given here.

Data set [10] addresses T2, Amine oxidase [flavin-containing] B. Nature of the data set: Time dependent inhibition of human recombinant MAO-B expressed in insect cell microsome assessed as 4-hydroxyquinoline formation using kynuramine as substrate preincubated for 15 to 60 mins at 2 times IC50 measured after 15 mins following twofold compound dilution with addition of substrate by fluorescence spectrophotometry. The data set is classed as microsomes. Particulars: 0.25 h.

For `Cn1c(=O)c2c(nc([S+]([O-])CCc3ccc(Cl)cc3)n2C)n(C)c1=O` (stereo unspecified), in the data set listed under Homo sapiens, the Ratio IC50 worked out at 260. Besides, the values for the IC50 in data set [1] and in data set [2] were 203000 nM and 781 nM, respectively.

In [3], `Cn1c(=O)c2c(nc(SCCc3cccc(C(F)(F)F)c3)n2C)n(C)c1=O` returned a logP of 3.14. Moreover, in data set [4], the Activity came out at 22%. The Ratio IC50 in the data set filed under Homo sapiens worked out at 8290. In addition, the results for the IC50 in data set [1] and in [2] were 141000 nM and 17 nM, respectively.

Consider `Cn1c(=O)c2c(nc(SCCc3cccc(Cl)c3)n2C)n(C)c1=O`, for which the Ratio IC50 in the data set listed under Homo sapiens was 132. Moreover, the IC50 in data set [1] worked out at 5660 nM; in data set [2], 43 nM.

Consider `Cn1c(=O)c2c(nc([S+]([O-])CCc3ccc(F)cc3)n2C)n(C)c1=O` (stereo unspecified), for which, in the data set filed under Homo sapiens, the Ratio IC50 amounted to 68. Further, the IC50 in data set [1] came out at 239000 nM; in [2], 3500 nM.

Regarding `Cn1c(=O)c2c(nc(SCc3cccc(Cl)c3)n2C)n(C)c1=O`, in the data set listed under Homo sapiens, the Ratio IC50 turned out to be 28. In addition, the values for the concentration for half-maximal inhibition (IC50) in [1] and in data set [2] were 6430 nM and 227 nM, respectively.

On to `Cc1cccc(CCSc2nc3c(c(=O)n(C)c(=O)n3C)n2C)c1`, for which the Ratio IC50 in the data set listed under Homo sapiens is 235. The IC50 came to 12000 nM in data set [1] and 51 nM in data set [2].

Turning to `Cn1c(=O)c2c(nc(SCCc3ccc(F)cc3)n2C)n(C)c1=O`, the Ratio IC50 in the data set filed under Homo sapiens was found to be 207. For the same compound, the IC50 was 14700 nM in [1] and 71 nM in data set [2].

Consider `Cn1c(=O)c2c(nc(SCCc3ccc(C(F)(F)F)cc3)n2C)n(C)c1=O`, for which the “inhibition (INH)” value in data set [5] is “Not Active”. The compound further came in with a logP in data set [3] of 3.21. For the same compound, the IC50 in data set [2] is 19 nM.

As for `Cn1c(=O)c2c(nc([S+]([O-])CCc3ccc(Br)cc3)n2C)n(C)c1=O` (stereo unspecified), the Ratio IC50 in the data set filed under Homo sapiens worked out at 122. In addition, the figures for the IC50 in [1] and in [2] were 57300 nM and 471 nM, respectively.

As to `Cn1c(=O)c2c(nc(SCCc3ccccc3)n2C)n(C)c1=O`, in data set [3], the logP came to 3.22. Besides, in the data set filed under Homo sapiens, the Ratio IC50 was determined as 69. The IC50 turned out to be 18700 nM in [1] and 271 nM in data set [2].

Turning to `Cn1c(=O)c2c(nc([S+]([O-])Cc3ccccc3)n2C)n(C)c1=O` (stereo unspecified), in the data set filed under Homo sapiens, the Ratio IC50 is 2. For the same compound, the values for the IC50 in data set [1] and in [2] were 250000 nM and 131000 nM, respectively.

Regarding `COc1cccc(CCSc2nc3c(c(=O)n(C)c(=O)n3C)n2C)c1`, the Ratio IC50 in the data set filed under Homo sapiens was determined as 385. Moreover, the IC50 in data set [1] was found to be 48100 nM; in data set [2], 125 nM.

Take `Cn1c(=O)c2c(nc(SCCCc3ccccc3)n2C)n(C)c1=O`: the logP in data set [3] was 3.3. Besides, the IC50 in [1] is 6480 nM.

With `Cn1c(=O)c2c(nc(SCCc3ccc(Br)cc3)n2C)n(C)c1=O`, in [3], the logP came to 2.98. Further, in the data set filed under Homo sapiens, the Ratio IC50 was 5680. The IC50 amounted to 108000 nM in [1] and 19 nM in data set [2].

In data set [3], `Cn1c(=O)c2c(nc(SCCCc3ccc(Cl)cc3)n2C)n(C)c1=O` gave a lipophilicity (logP) of 3.59. In the data set filed under Homo sapiens, the Ratio IC50 was 12. For the same compound, the results for the IC50 in data set [1] and in [2] were 708 nM and 61 nM, respectively.

`Cn1c(=O)c2c(nc(SCCCc3cccc(Cl)c3)n2C)n(C)c1=O` had a logP in [3] of 3.76. Also, in the data set filed under Homo sapiens, the Ratio IC50 came out at 57. Moreover, the IC50 in data set [1] came out at 3530 nM; in [2], 62 nM.

In data set [3], `COc1ccc(CCSc2nc3c(c(=O)n(C)c(=O)n3C)n2C)cc1` registered a logP of 2.55. Further, the Ratio IC50 in the data set listed under Homo sapiens was 7300. Further, the IC50 in data set [1] came to 168000 nM; in data set [2], 23 nM.

Regarding `Cn1c(=O)c2c(nc(SCCc3ccc(Cl)cc3)n2C)n(C)c1=O`, the Ki was 9.8 nM in data set [6] and 13 nM in [7]. The Activity in data set [4] was determined as 26%. The “inhibition (INH)” value in data set [8], in data set [9] and in data set [10] was “Active” throughout. Further, the Ratio IC50 in the data set listed under Homo sapiens was 423. Further, the IC50 in [1] turned out to be 8460 nM; in [2], 20 nM.

With `Cn1c(=O)c2c(nc(SCCc3cccc(Br)c3)n2C)n(C)c1=O`, the Ratio IC50 in the data set filed under Homo sapiens worked out at 143. Also, the IC50 amounted to 5700 nM in data set [1] and 40 nM in data set [2].

`Cc1ccc(CCSc2nc3c(c(=O)n(C)c(=O)n3C)n2C)cc1` showed a logP in [3] of 3.15. The Ratio IC50 in the data set listed under Homo sapiens was 1740. Moreover, the IC50 in [1] was determined as 125000 nM; in [2], 72 nM.

As for `Cn1c(=O)c2c(nc(SCc3cccc(Br)c3)n2C)n(C)c1=O`, in the data set listed under Homo sapiens, the Ratio IC50 is 190. For the same compound, the IC50 in data set [1] was found to be 37900 nM; in [2], 199 nM.
